# Measured values: patent US9732087B2, “Diamino-pyridine, pyrimidine, and pyridazine modulators of the histamine H4 receptor” (JANSSEN PHARMACEUTICA NV, priority 2008, dated 2017)
# Molecular target: human H4 receptor (Homo sapiens (Human), UniProt Q9H3N8)
# Assay: Binding assay on recombinant human histamine H4 receptor ([3H]histamine competition, SK-N-MC cell membranes)
# Details: membranes harvested with 96 well Brandel system; [3H]histamine 10 nM; average of results; read-out: Brandel Ki
# Protocol: Binding Assay on Recombinant Human Histamine H4Receptor
# Cell pellets from SK-N-MC cells stably or transiently transfected with human H4 receptor (NCBI accession No. AF312230) were used for the binding assays. Cell pellets were homogenized in 50 mM Tris/5 mM EDTA buffer and supernatants from an 800 g spin were collected and recentrifuged at 30,000 g for 30 min. Pellets were rehomogenized in 50 mM Tris/5 mM EDTA buffer. […] Membranes were harvested by rapid filtration using the 96 well Brandel system (Table 1, Brandel) or a cell harvester (Table 1, Cell Harvester) using a Whatman GF/C filter or filter plates treated with 0.5% polyethylenimine (PEI), and washed 4 times with ice-cold 50 mM Tris/5 mM EDTA buffer. Filters were then dried, mixed with scintillant and radioactive counts were determined. […] Where activity is shown as greater than (>) a particular value, the value is the highest concentration tested.
row,Ki [µM],Structure (SMILES)
1,0.0059,"CN[C@@H]1CCN(c2cnnc(N[C@H]3C[C@H]4C[C@@H]([C@@H]3C)C4(C)C)c2)C1 [Example 97, 5-[(3R)-3-(Methylamino)pyrrolidin-1-yl]-N-[(1S,2S,3S,5R)-2,6,6-trimethylbicyclo[3.1.1]hept-3-yl]pyridazin-3-amine]"
2,0.0048,"CN[C@@H]1CCN(c2cnnc(NC3CCCCC3)c2)C1 [Example 98, N-Cyclohexyl-5-[(3R)-3-(methylamino)pyrrolidin-1-yl]pyridazin-3-amine]"
3,0.0239,"CN[C@@H]1CCN(c2cnnc(NCC3CC3)c2)C1 [Example 99, N-(Cyclopropylmethyl)-5-[(3R)-3-(methylamino)pyrrolidin-1-yl]pyridazin-3-amine]"
4,0.031,"CCCCNc1cc(N2CC[C@@H](NC)C2)cnn1 [Example 100, N-Butyl-5-[(3R)-3-(methylamino)pyrrolidin-1-yl]pyridazin-3-amine]"

row,Structure (SMILES),Ki [µM]
1,"CC(C)CNc1cc(N2CCN(C)CC2)cnn1 [Example 101, 5-(4-Methylpiperazin-1-yl)-N-(2-methylpropyl)pyridazin-3-amine]",> 10

# Same assay, conditions: membranes harvested with cell harvester; [3H]histamine 10 nM; average of results; read-out: Cell Harvester Ki
row,Ki [µM],Structure (SMILES)
1,0.702,"NC1CN(c2ccnc(N[C@@H]3CCOC3)n2)C1 [Example 93, 4-(3-Aminoazetidin-1-yl)-N-[(3R)-tetrahydrofuran-3-yl]pyrimidin-2-amine]"
2,0.868,"NC1CN(c2ccnc(NC[C@H]3CCCO3)n2)C1 [Example 94, 4-(3-Aminoazetidin-1-yl)-N-[(2R)-tetrahydrofuran-2-ylmethyl]pyrimidin-2-amine]"
3,0.0059,"CN[C@@H]1CCN(c2cnnc(N[C@H]3C[C@H]4C[C@@H]([C@@H]3C)C4(C)C)c2)C1 [Example 97, 5-[(3R)-3-(Methylamino)pyrrolidin-1-yl]-N-[(1S,2S,3S,5R)-2,6,6-trimethylbicyclo[3.1.1]hept-3-yl]pyridazin-3-amine]"
4,0.0048,"CN[C@@H]1CCN(c2cnnc(NC3CCCCC3)c2)C1 [Example 98, N-Cyclohexyl-5-[(3R)-3-(methylamino)pyrrolidin-1-yl]pyridazin-3-amine]"
5,0.0239,"CN[C@@H]1CCN(c2cnnc(NCC3CC3)c2)C1 [Example 99, N-(Cyclopropylmethyl)-5-[(3R)-3-(methylamino)pyrrolidin-1-yl]pyridazin-3-amine]"
6,0.031,"CCCCNc1cc(N2CC[C@@H](NC)C2)cnn1 [Example 100, N-Butyl-5-[(3R)-3-(methylamino)pyrrolidin-1-yl]pyridazin-3-amine]"
7,0.0459,"CNC1CN(c2ccnc(NCC3CCCCC3)n2)C1 [Example 102, N-(Cyclohexylmethyl)-4-[3-(methylamino)azetidin-1-yl]pyrimidin-2-amine]"
8,0.168,"C[C@@H](Nc1nccc(N2CC[C@@H](N)C2)n1)C1CCCCC1 [Example 103, 4-[(3R)-3-Aminopyrrolidin-1-yl]-N-[(1R)-1-cyclohexylethyl]pyrimidin-2-amine]"
9,1.05,"CC1(C)[C@H]2CC[C@H](CNc3nccc(N4C[C@H]5CCN[C@H]5C4)n3)[C@@H]1C2 [Example 104, N-{[(1S,2S,5S)-6,6-Dimethylbicyclo[3.1.1]hept-2-yl]methyl}-4-[(3aR,6aR)-hexahydropyrrolo[3,4-b]pyrrol-5(1H)-yl]pyrimidin-2amine]"
10,0.165,"CNC1CN(c2ccnc(NCC3CCC4CC3C4(C)C)n2)C1 (stereo not drawn) [Example 105, N-[(6,6-Dimethylbicyclo[3.1.1]hept-2-yl)methyl]-4-[3-(methylamino)azetidin-1-yl]pyrimidin-2-amine]"
11,0.194,"CC1(C)C2CCC(CNc3nccc(N4CC[C@@H](N)C4)n3)C1C2 (stereo partly drawn) [Example 106, 4-[(3R)-3-Aminopyrrolidin-1-yl]-N-[(6,6-dimethylbicyclo[3.1.1]hept-2-yl)methyl]pyrimidin-2-amine]"
12,0.141,"CNC1CN(c2ccnc(NC3CCOCC3)n2)C1 [Example 108, 4-[3-(Methylamino)azetidin-1-yl]-N-(tetrahydro-2H-pyran-4-yl)pyrimidin-2-amine]"
13,0.064,"N[C@H]1CCN(c2ccnc(NCC3CC3)n2)C1 [Example 109, 4-[(3S)-3-Aminopyrrolidin-1-yl]-N-(cyclopropylmethyl)pyrimidin-1-amine]"
14,0.837,"CC(C)(O)CNc1nccc(N2CC[C@H](N)C2)n1 [Example 110, 1-({4-[(3S)-3-Aminopyrrolidin-1-yl]pyrimidin-2-yl}amino)-2-methylpropan-2-ol]"
15,0.139,"CNC1CN(c2ccnc(N[C@H](C)C3CCCCC3)n2)C1 [Example 113, N-[(1R)-1-Cyclohexylethyl]-4-[3-(methylamino)azetidin-1-yl]pyrimidin-2-amine]"
16,0.0454,"CN[C@@H]1CCN(c2ccnc(NCC(C)(C)O)n2)C1 [Example 114, 2-Methyl-1-({4-[(3R)-3-(methylamino)pyrrolidin-1-yl]pyrimidin-2-yl}amino)propan-2-ol]"
17,0.00753,"C[C@@H]1[C@@H](Nc2nccc(N3CC[C@@H](N)C3)n2)C[C@H]2C[C@@H]1C2(C)C [Example 116, 4-[(3R)-3-Aminopyrrolidin-1-yl]-N-[(1S,2S,3S,5R)-2,6,6-trimethylbicyclo[3.1.1]hept-3-yl]pyrimidin-2-amine]"
18,0.247,"N[C@@H]1CCN(c2ccnc(NCCc3ccccc3)n2)C1 [Example 117, 4-[(3R)-3-Aminopyrrolidin-1-yl]-N-(2-phenylethyl)pyrimidin-2-amine]"
19,> 10,"N[C@H]1CCN(c2ccnc(NCc3ccccn3)n2)C1 [Example 118, 4-[(3S)-3-Aminopyrrolidin-1-yl]-N-(pyridin-2-ylmethyl)pyrimidin-2-amine]"

row,Ki [µM],Structure (SMILES)
1,0.0229,"CN1CCN(c2ccnc(NCC3CCCC3)n2)CC1 [Example 119, N-(Cyclopentylmethyl)-4-(4-methylpiperazin-1-yl)pyrimidin-2-amine]"
2,0.303,CN1CCN(c2ccnc(NCC(C)(C)O)n2)CC1 [Example 120]
3,0.00157,"CN[C@@H]1CCN(c2ccnc(NCC3CCCC3)n2)C1 [Example 121, N-(Cyclopentylmethyl)-4-[(3R)-3-(methylamino)pyrrolidin-1-yl]pyrimidin-2-amine]"
4,0.0647,CNC1CN(c2ccnc(NCC(C)(C)O)n2)C1 [Example 122]
5,0.00204,"N[C@@H]1CCN(c2ccnc(NCC3CCCC3)n2)C1 [Example 123, 4-[(3R)-3-Aminopyrrolidin-1-yl]-N-(cyclopentylmethyl)pyrimidin-2-amine]"
6,0.155,"CSCCNc1nccc(N2CCNCC2)n1 [Example 124, N-[2-(Methylsulfanyl)ethyl]-4-piperazin-1-ylpyrimidin-2-amine]"
7,0.0021,"CC1(C)[C@@H]2CC[C@@]1(C)[C@@H](Nc1nccc(N3C[C@H]4CCN[C@H]4C3)n1)C2 [Example 125, 4-[(3aR,6aR)-Hexahydropyrrolo[3,4-b]pyrrol-5(1H)-yl]-N-[(1R,2S,4R)-1,7,7-trimethylbicyclo[2.2.1]hept-2-yl]pyrimidin-2-amine]"
8,0.0198,"CNC1CN(c2ccnc(N[C@H]3C[C@H]4CC[C@]3(C)C4(C)C)n2)C1 [Example 126, 4-[3-(Methylamino)azetidin-1-yl]-N-[(1R,2S,4R)-1,7,7-trimethylbicyclo[2.2.1]hept-2-yl]pyrimidin-2-amine]"
9,0.00166,"CC1(C)[C@@H]2CC[C@@]1(C)[C@@H](Nc1nccc(N3CC[C@@H](N)C3)n1)C2 [Example 127, 4-[(3R)-3-Aminopyrrolidin-1-yl]-N-[(1R,2S,4R)-1,7,7-trimethylbicyclo[2.2.1]hept-2-yl]pyrimidin-2-amine]"
10,0.844,"COCCNc1nccc(N2CC[C@H](N)C2)n1 [Example 128, 4-[(3S)-3-Aminopyrrolidin-1-yl]-N-(2-methoxyethyl)pyrimidin-2-amine]"
11,0.141,"N[C@H]1CCN(c2ccnc(NC3CCCCC3)n2)C1 [Example 129, 4-[(3S)-3-Aminopyrrolidin-1-yl]-N-cyclohexylpyrimidin-2-amine]"
12,0.849,"CC(C)(CO)CNc1nccc(N2CC[C@H](N)C2)n1 [Example 130, 3-({4-[(3S)-3-Aminopyrrolidin-1-yl]pyrimidin-2-yl}amino)-2,2-dimethylpropan-1-ol]"
13,0.82,"c1ccc(CNc2nccc(N3CCNCC3)n2)cc1 [Example 131, N-Benzyl-4-piperazin-1-ylpyrimidin-2-amine]"
14,1.54,"c1ccc(CCNc2nccc(N3CCNCC3)n2)cc1 [Example 132, N-(2-Phenylethyl)-4-piperazin-1-ylpyrimidin-2-amine]"
15,0.129,"c1cc(N2CCNCC2)nc(NC2CC3CCC2C3)n1 (stereo not drawn) [Example 133, N-Bicyclo[2.2.1]hept-2-yl-4-piperazin-1-ylpyrimidin-2-amine]"
16,0.697,"C[C@@H]1[C@@H](Nc2nccc(N3CCNCC3)n2)C[C@H]2C[C@@H]1C2(C)C [Example 134, 4-Piperazin-1-yl-N-[(1S,2S,3S,5R)-2,6,6-trimethylbicyclo[3.1.1]hept-3-yl]pyrimidin-2-amine]"
17,0.0159,"CNC1CN(c2ccnc(NCCCO)n2)C1 [Example 135, 3-({4-[3-(Methylamino)azetidin-1-yl]pyrimidin-2-yl}amino)propan-1-ol]"
18,0.193,"CNC1CN(c2ccnc(NCC(C)(C)CO)n2)C1 [Example 136, 2,2-Dimethyl-3-({4-[3-(methylamino)azetidin-1-yl]pyrimidin-2-yl}amino)propan-1-ol]"
19,1.38,"OCCCNc1nccc(N2CCNCC2)n1 [Example 137, 3-[(4-Piperazin-1-ylpyrimidin-2-yl)amino]propan-1-ol]"

row,Structure (SMILES),Ki [µM]
1,"CC(C)CNc1cc(N2CCN(C)CC2)cnn1 [Example 101, 5-(4-Methylpiperazin-1-yl)-N-(2-methylpropyl)pyridazin-3-amine]",> 10
2,"c1cc(N2C[C@H]3CCN[C@H]3C2)nc(NCC2CCCCC2)n1 [Example 107, N-(Cyclohexylmethyl)-4-[(3aR,6aR)-hexahydropyrrolo[3,4-b]pyrrol-5(1H)-yl]pyrimidin-2-amine]",0.0699
3,"c1cc(N2CCNCC2)nc(NC2CC2)n1 [Example 112, N-Cyclopropyl-4-piperazin-1-ylpyrimidin-2-amine]",0.236
4,"C[C@@H](Nc1nccc(N2C[C@H]3CCN[C@H]3C2)n1)C1CCCCC1 [Example 115, N-[(1R)-1-Cyclohexylethyl]-4-[(3aR,6aR)-hexahydropyrrolo[3,4-b]pyrrol-5(1H)-yl]pyrimidin-2-amine]",0.932
5,"CC(C)CNc1nccc(N2C[C@H]3CCN[C@H]3C2)n1 [Example 138, 4-[(3aR,6aR)-Hexahydropyrrolo[3,4-b]pyrrol-5(1H)-yl]-N-(2-methylpropyl)pyrimidin-2-amine]",0.0238
